Laboratory results from PMC7998250, “Temperate Zone Plant Natural Products—A Novel Resource for Activity against Tropical Parasitic Diseases” (Pharmaceuticals, 2021).
Like-named read-outs stand apart in the source and are kept apart here.

Columns and labels:
[1] = test system: L. mexicana intramacrophage amastigotes; assay: L. mexicana intramacrophage assay (NanoLuc PEST strain in THP-1); type: cell-based, Leishmania mexicana
Text: Figure S4: Leishmania intramacrophage assays. […] Data represents the mean and standard deviation (n=4). B Average number of parasites per macrophage in the same experiment as A. A Kruskal-Wallis test followed by Dunn’s multiple comparison test was used to determine a significant difference (p<0.05) of each treatment to the untreated control and have been indicated with those being significant marked with an asterix. C Comparing 700022 activity between axenic amastigotes (red) and intramacrophage amastigotes (blue). Concentration–response curves for compound 700022 against: intracellular L. mexicana NanoLuc-PEST-transgenic line (blue), axenic amastigotes of NanoLuc-PEST-transgenic line (red) as well as the human cell lines HepG2 (green) and THP-1 (black). The data for the intracellular L. mexicana NanoLuc-PEST-transgenic line represent one biological repeat of three technical repeats.

[2] = test system: L. donovani axenic amastigotes; assay: Concentration-response EC50, L. donovani axenic amastigotes; type: cell-based; conditions: Leishmania donovani
Text: The four lanosterone-like sterols derived from the Noble Fir Abies procera (700022, 700107, 700136) and the Grand Fir Abies grandis (700240) were the only initial compounds taken forward for L. mexicana due to their nanomolar activity and apparent low cytotoxicity (Figure 3a). […] Understanding the impact of the ring-opened lactone head group in this compound compared to the other three warrants further analysis in exploring their structure-activity relationships. These four sterols were also tested for growth inhibitory activity against L. donovani axenic amastigotes. […] As Leishmania spp. amastigotes typically reside with macrophages, further cytotoxicity assays with these sterols were performed against an activated monocyte cell line (THP-1) (Figure 4b).

T. brucei = assay: Concentration-response EC50, T. brucei; type: cell-based, Trypanosoma brucei brucei; conditions: 48 h
Text: Initial hits from the parasite panel screen were taken forward in log concentration versus normalised response assays to estimate the half maximal effective concentration (EC50) in hit species as well as the half maximal cytotoxic concentrations (CC50) in the human hepatoma cell line HepG2 as a preliminary test for selectivity. Using CC50/EC50 to define the selectivity index (SI), the selectivity for each compound in a defined species compared to a human cell line was estimated and compared to the EC50 (Figure 3).
EC50 values were determined by serial two-fold dilution of each compound in 96 well plates. Culture conditions and viability assays were as stated for the initial screen, with some exceptions. L. mexicana and L. donovani axenic amastigotes were seeded at 2 × 10^6 cell/s mL, T. brucei and T. evansi were seeded at 2 × 10^5 cells/mL. For cytotoxicity studies, HepG2 cells were seeded at 1 × 10^5 cells/mL, incubated for 48 h and viability was assessed using the Alamar Blue assay [66, 67]. […] Normalised growth and viability data (compared to untreated controls) were plotted against Log10 concentration to estimate EC50 in GraphPad (Prism v6).

P. falciparum 3D7 = assay: Concentration-response EC50, P. falciparum 3D7; type: cell-based; conditions: Plasmodium falciparum
Text: This is not surprising as the rate of kill is a result of the mechanism of cell death and, given their structural similarity, these three bisobolane sesquiterpene glycosides likely share the same target(s), albeit with some differences in affinity. The rate of kill, relatively, falls between that of atovaquone and dihydroartemisinin and is more similar to that of chloroquine.

[3] = test system: activated monocyte cell line (THP-1); assay: Cytotoxicity CC50, differentiated THP-1, Alamar Blue; type: cell-based, human; conditions: for CC50: differentiated THP-1, 48 h, read-out: THP1 CC50
HepG2 cells = assay: Cytotoxicity CC50, HepG2, Alamar Blue; conditions: read-out: HepG2 CC50; 48 h
Method in brief: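 Human hepatoma cells seeded at 1 × 10^5 cells/mL with two-fold serial compound dilutions, incubated 48 h at 37 °C, 5% CO2 in DMEM/10% FBS. Viability read by Alamar Blue. CC50 estimated from viability normalised to untreated controls versus log concentration.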

[4] = factor, relative to intramacrophage amastigote EC50
[5] = Trypanosoma brucei, read-out: T. brucei EC50, bloodstream form, 48 h
[6] = 3D7, read-out: P. falciparum 3D7 EC50

| SMILES | EC50 [2] [nM] | EC50 (T. brucei; [5]) [nM] | EC50 (P. falciparum 3D7; [6]) [nM] | also measured |
| --- | --- | --- | --- | --- |
| CC1=CC(O)(CC(C)C2(C)CC=C3C4=CCC5C(C)(C)C(O)CCC5(C)C4CCC32C)OC1=O (stereo not shown) [Compound 700022] | 140 | – | – | EC50 ([1]; Leishmania mexicana, L. mexicana NanoLuc PEST strain in THP-1): 10700 nM; selectivity over HepG2 [1, 4]: 2.7; selectivity over THP-1 [1, 4]: 1.6 |
| CC1OC(OC2C(OC(=O)C3CC[C@@H]4[C@H](C3)OC3(CC(OC(=O)/C=C/c5ccccc5)[C@@H](C)CO3)C43CO3)OC(CO)C(O)C2O)C(O)C(O)C1O (stereo partly shown) [Compound 700042] | – | 410 | 190 | – |
| CC1=CC(O)(CC(C)C2(C)CCC3C4=CCC5C(C)(CCC(O)C5(C)C)C4=CCC32C)OC1=O (stereo not shown) [Compound 700107] | 260 | – | – | – |
| CC1=CC(O)(CC(C)C2(C)CC=C3C4=CCC5C(C)(C)C(=O)CCC5(C)C4CCC32C)OC1=O (stereo not shown) [Compound 700136] | 160 | – | – | – |
| C/C(=C/C(=O)CC(C)C1CCC2(C)C3=CCC4C(C)(C)C(=O)CCC4(C)C3CCC12C)C(=O)O (stereo not shown) [Compound 700240] | 340 | – | – | selectivity index (THP-1 CC50 / L. mexicana EC50) ([3]; L. mexicana compared to THP-1): 21; CC50 [3]: 14000 nM |
| C=C1C(=O)OC2CC(C)C3C=CC(=O)C3(C)C(OC(C)=O)C12 (stereo not shown) [Compound 701155] | – | – | 2900 | EC50 (T. brucei; read-out: T. brucei EC50, bloodstream form): 150 nM; CC50 (HepG2 cells): 1100 nM; CC50 [3]: 380 nM |
| C=C1C(=O)OC2CC(C)C3C=CC(=O)C3(C)C(OC(=O)C(C)C)C12 (stereo not shown) [Compound 701157] | – | 290 | 2100 | – |
| C=C1C(=O)OC2CC(C)C3C=CC(=O)C3(C)C(OC(=O)C(C)CC)C12 (stereo not shown) [Compound 701158] | – | 310 | 1500 | CC50 (HepG2 cells): 810 nM |
| C=C1C(=O)OC2CC(C)C3C(OC)CC(=O)C3(C)C(OC(=O)C(C)CC)C12 (stereo not shown) [Compound 701159] | – | – | – | EC50 (T. brucei; Trypanosoma brucei, bloodstream form, read-out: T. brucei EC50): 390 nM; EC50 (P. falciparum 3D7; 3D7, intraerythrocytic, read-out: P. falciparum 3D7 EC50): 4600 nM |
